Assay results taken from patent US11866429B2, “Heteroaryl-biphenyl amines for the treatment of PD-L1 diseases” (CHEMOCENTRYX, INC., priority 2019, dated 2024).
pIC50: −log10 of the molar value.

Target: human PD-L1 (Homo sapiens (Human), UniProt Q9NZQ7)
Experiment: Enzyme-Linked Immunosorbent Assay (ELISA), PD-1/PD-L1 binding
Settings: plates coated with human PD-L1; Human PD-1 and biotin added; absorbance at 450 nm
Description: 96 Well plates were coated with 1 μg/mL of human PD-L1 (obtained from R&D) in PBS overnight at 4° C. The wells were then blocked with 2% BSA in PBS (W/V) with 0.05% TWEEN-20 for 1 hour at 37° C. The plates were washed 3 times with PBS/0.05% TWEEN-20 and the compounds were serial diluted (1:5) in dilution medium and added to the ELISA plates. Human PD-1 and biotin 0.3 μg/mL (ACRO Biosystems) were added and incubated for 1 hour at 37° C. then washed 3 times with PBS/0.05% TWEEN-20. A second block was performed with 2% BSA in PBS (W/V)/0.05% TWEEN-20 for 10 min at 37° C. and the plates were washed 3 times with PBS/0.05% TWEEN-20. Streptavidin-HRP was added for 1 hour at 37° C. then the plates were washed 3 times with PBS/0.05% TWEEN-20. TMB substrate was added and reacted for 20 min at 37° C. A stop solution (2 N aqueous […]) was added. The absorbance was read at 450 nm using a micro-plate spectrophotometer.

human PD-L1, sequence (Q9NZQ7 19-239): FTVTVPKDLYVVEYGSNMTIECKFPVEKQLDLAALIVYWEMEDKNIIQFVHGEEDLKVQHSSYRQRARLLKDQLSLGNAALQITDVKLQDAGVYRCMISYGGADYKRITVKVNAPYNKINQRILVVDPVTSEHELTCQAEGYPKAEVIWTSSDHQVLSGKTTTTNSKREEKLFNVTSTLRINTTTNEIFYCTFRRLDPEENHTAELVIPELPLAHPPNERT

With `CNCc1ccc(-c2cccc(-c3cccc(Nc4nc(C)nc5cccnc45)c3C)c2Cl)nc1OC` [Compound 1.038] the pIC50 was greater than 8.00.

In the case of `COc1nc(-c2cccc(-c3cccc(Nc4nc(C)nc5cccnc45)c3C)c2Cl)ccc1CN(C)CCO` [Compound 1.021], the pIC50 was greater than 8.00.

For `COc1nc(-c2cccc(-c3cccc(Nc4nccc5nccnc45)c3Cl)c2Cl)ccc1CNC[C@@H]1CCC(=O)N1` [Compound 1.084], the pIC50 was greater than 8.00.

`COc1nc(-c2cccc(-c3cccc(Nc4nccc5nccnc45)c3C)c2Cl)ccc1CN1CC(C(=O)O)C1` [Compound 1.076] was tested, and the pIC50 was greater than 8.00.

Compound `COc1nc(-c2cccc(-c3cccc(Nc4nc(C)nc5cccnc45)c3Cl)c2Cl)ccc1CN1CC(C)(C(=O)O)C1` [Compound 1.072] has a pIC50 greater than 8.00.

In the case of `COc1nc(-c2cccc(-c3cccc(Nc4nccc5nccnc45)c3C)c2Cl)ccc1CN1CC(O)C1` [Compound 1.077], the pIC50 was greater than 8.00.

In the case of `COc1nc(-c2cccc(-c3cccc(Nc4nc(C)nc5cccnc45)c3C)c2Cl)cnc1CNCCCO` [Compound 1.006], the pIC50 was greater than 8.00.

In the case of `COc1nc(-c2cccc(-c3cccc(Nc4nc(C)nc5cccnc45)c3C)c2F)ccc1CN[C@@H]1CCOC[C@@H]1O` [Compound 1.012], the pIC50 was greater than 8.00.

Compound `COc1nc(-c2cccc(-c3cccc(Nc4nc(C)nc5cccnc45)c3C)c2Cl)ccc1CNC[C@H]1CCC(=O)N1` [Compound 1.026] has a pIC50 greater than 8.00.

In the case of `COc1nc(-c2cccc(-c3cccc(Nc4nc(C)nc5cccnc45)c3C)c2Cl)ccc1CN[C@@H]1CCOC[C@@H]1O` [Compound 1.064], the pIC50 was greater than 8.00.

`COc1nc(-c2cccc(-c3cccc(Nc4nc(C(F)(F)F)nc5cccnc45)c3C)c2Cl)ccc1CN1CC(C)(C(=O)O)C1` [Compound 1.069] gave a pIC50 greater than 8.00.

Compound `CCc1nc(-c2cccc(-c3cccc(Nc4nccc5nccnc45)c3Cl)c2Cl)cnc1CNC[C@@H]1CCC(=O)N1` [Compound 1.080] has a pIC50 greater than 8.00.

`COc1nc(-c2cccc(-c3cccc(Nc4nccc5nccnc45)c3Cl)c2Cl)cnc1CN[C@@H]1CCOC[C@@H]1O` [Compound 1.001] was tested, and the pIC50 was greater than 8.00.

`COc1nc(-c2cccc(-c3cccc(Nc4nc(C)nc5cccnc45)c3C)c2Cl)ccc1CN1CC(C)(C(=O)O)C1` [Compound 1.065] showed a pIC50 greater than 8.00.

For `COc1nc(-c2cccc(-c3cccc(Nc4nc(C)nc5cccnc45)c3C)c2Cl)ccc1CN1CC2(CCC(=O)N2)C1` [Compound 1.053], the pIC50 was greater than 8.00.

With `COc1nc(-c2cccc(-c3cccc(Nc4nccc5nccnc45)c3Cl)c2Cl)ccc1CN1CC(O)C1` [Compound 1.079] the pIC50 was greater than 8.00.

Compound `COc1nc(-c2cccc(-c3cccc(Nc4nc(C)nc5cccnc45)c3C)c2Cl)ccc1CN1CCC(C)(O)CC1` [Compound 1.063] has a pIC50 greater than 8.00.

Work on `COc1nc(-c2cccc(-c3cccc(Nc4nc(C)nc5cccnc45)c3C)c2F)ccc1CNC[C@@H]1CCC(=O)N1` [Compound 1.013] yielded a pIC50 greater than 8.00.

`COc1nc(-c2cccc(-c3cccc(Nc4nc(C)nc5cccnc45)c3C)c2Cl)ccc1CNC[C@@H]1CCC(=O)N1` [Compound 1.073] was tested, and the pIC50 was greater than 8.00.

`Cc1nc(Nc2cccc(-c3cccc(-c4ccc(CNC[C@@H]5CCC(=O)N5)c(C(F)(F)F)n4)c3Cl)c2C)c2ncccc2n1` [Compound 1.020] was tested, and the pIC50 was greater than 8.00.

Work on `COc1nc(-c2cccc(-c3cccc(Nc4nccc5nccnc45)c3C)c2Cl)ccc1CNC[C@@H]1CCC(=O)N1` [Compound 1.078] yielded a pIC50 greater than 8.00.

Work on `COc1nc(-c2cccc(-c3cccc(Nc4nc(C)nc5cccnc45)c3C)c2Cl)ccc1CNC[C@@H](O)CC(=O)O` [Compound 1.035] yielded a pIC50 greater than 8.00.

`COc1nc(-c2cccc(-c3cccc(Nc4nc(C)nc5cccnc45)c3C)c2Cl)ccc1CNC(CO)CO` [Compound 1.056] showed a pIC50 greater than 8.00.

Work on `COc1nc(-c2cccc(-c3cccc(Nc4nc(C)nc5cccnc45)c3C)c2C#N)ccc1CN[C@@H]1CCOC[C@@H]1O` [Compound 1.010] yielded a pIC50 greater than 8.00.

For `COc1nc(-c2cccc(-c3cccc(Nc4nc(C)nc5cccnc45)c3C)c2Cl)ccc1CN1CC2(CNC(=O)N2)C1` [Compound 1.008], the pIC50 was greater than 8.00.

`COc1nc(-c2cccc(-c3cccc(Nc4nc(C)nc5cccnc45)c3C)c2Cl)ccc1CN1CC[C@@H](O)C1` [Compound 1.040] was tested, and the pIC50 was greater than 8.00.

Compound `COc1nc(-c2cccc(-c3cccc(Nc4nc(C)nc5cccnc45)c3C)c2Cl)ccc1CN[C@@H]1CCC(=O)NC1` [Compound 1.054] has a pIC50 greater than 8.00.

Work on `COc1nc(-c2cccc(-c3cccc(Nc4nc(C)nc5cccnc45)c3C)c2Cl)ccc1CN1CC[C@@](C)(C(=O)O)C1` [Compound 1.033] yielded a pIC50 greater than 8.00.

`COc1nc(-c2cccc(-c3cccc(Nc4ncnc5cccnc45)c3Cl)c2Cl)ccc1CNC[C@@H]1CCC(=O)N1` [Compound 1.071] showed a pIC50 greater than 8.00.

`COc1nc(-c2cccc(-c3cccc(Nc4nc(C)nc5cccnc45)c3C)c2Cl)ccc1CN[C@@H]1CNC(=O)C1` [Compound 1.055] showed a pIC50 greater than 8.00.

For `COc1nc(-c2cccc(-c3cccc(Nc4nccc5nccnc45)c3C)c2Cl)ccc1CN[C@@H]1CCOC[C@@H]1O` [Compound 1.075], the pIC50 was greater than 8.00.

For `Cc1nc(Nc2cccc(-c3cccc(-c4ccc(CNC[C@@H]5CCC(=O)N5)c(C)n4)c3Cl)c2C)c2ncccc2n1` [Compound 1.048], the pIC50 was greater than 8.00.

In the case of `COc1nc(-c2cccc(-c3cccc(Nc4nc(C)nc5cccnc45)c3Cl)c2F)ccc1CN[C@@H]1CCOC[C@@H]1O` [Compound 1.009], the pIC50 was greater than 8.00.

With `COc1nc(-c2cccc(-c3cccc(Nc4nc(C)nc5cccnc45)c3C)c2Cl)ccc1CN1CC2(CCNC2=O)C1` [Compound 1.037] the pIC50 was greater than 8.00.

With `COc1nc(-c2cccc(-c3cccc(Nc4nc(C)nc5cccnc45)c3C)c2Cl)ccc1CNC[C@H](O)CO` [Compound 1.027] the pIC50 was greater than 8.00.
